This note sets out measurements from patent publication US20240294531A1, “COVALENT HETEROCYCLES AND USES THEREOF” (Kumquat Biosciences Inc., priority 2022, published 2024).

The target of test [1] is BTK wildtype protein (Homo sapiens (Human), UniProt Q06187). The test can be described thus: BTK wildtype HTRF displacement assay. Type of test: binding. As to conditions: 1-hour incubation; read-out: BTK (wt) IC50. As to the method: (§1) The ability of a compound to bind BTK wildtype or BTK C481S proteins was measured using an HTRF displacement assay. The assay measures the ability of a compound to displace a tracer ligand bound to the active site of BTK wildtype or BTK C481 S proteins.
Chain of BTK wildtype protein (Q06187 2-659): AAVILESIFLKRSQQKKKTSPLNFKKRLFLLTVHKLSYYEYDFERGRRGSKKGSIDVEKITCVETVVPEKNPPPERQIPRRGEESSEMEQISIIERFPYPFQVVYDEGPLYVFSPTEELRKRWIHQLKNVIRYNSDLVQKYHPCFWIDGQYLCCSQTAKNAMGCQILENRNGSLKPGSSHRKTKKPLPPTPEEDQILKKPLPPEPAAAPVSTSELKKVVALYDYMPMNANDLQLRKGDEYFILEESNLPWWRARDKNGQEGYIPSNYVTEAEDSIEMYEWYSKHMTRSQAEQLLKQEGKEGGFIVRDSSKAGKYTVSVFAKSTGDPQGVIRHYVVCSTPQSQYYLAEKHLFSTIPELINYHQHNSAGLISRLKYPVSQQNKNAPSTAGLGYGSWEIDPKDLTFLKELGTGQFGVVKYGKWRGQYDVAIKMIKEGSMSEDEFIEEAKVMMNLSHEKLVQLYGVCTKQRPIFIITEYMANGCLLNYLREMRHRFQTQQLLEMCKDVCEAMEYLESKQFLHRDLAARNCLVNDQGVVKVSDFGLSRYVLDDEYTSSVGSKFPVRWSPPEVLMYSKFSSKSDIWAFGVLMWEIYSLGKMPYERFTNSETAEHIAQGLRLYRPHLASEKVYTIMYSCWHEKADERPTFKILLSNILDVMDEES
(§2) Test compounds were prepared as 10 mM stock solutions in DMSO (Fisher cat #BP231-100). Compounds to be assayed were dispensed using an Echo 650 acoustic dispenser (Beckman Coulter) on a 384 well plate in 6 doses applying four-fold dilutions from the highest concentration of 5 μM. N-terminal GST-tagged recombinant full-length BTK wildtype protein and BTK C481 S protein 2-659 were purchased from Carna Biosciences, Inc (Kobe, Japan). BTK wildtype or BTK C481S protein was separately incubated with compound in assay buffer containing kinase tracer 239 (Thermo Fisher) and Mab anti GST-Th (PerkinElmer). After a 1-hour incubation at room temperature, the HTRF signal was measured using SPARK plate reader (Tecan) using the TR fluorescence mode. The HTRF ratio is calculated for DMSO, no protein control and compound samples using the following equation: HTRF ratio=Emmision665/Emmision620×10^4. The signal for the no protein control samples was used to subtract background noise from the DMSO and compound samples. Background subtracted HTRF ratios are used to calculate the percent inhibition, where DMSO controls are set to 0 percent inhibition. The percent inhibition is plotted as a function of compound concentration and IC50 values were calculated from a four-parameter logistic fit in Prism v9.4 (GraphPad), where the bottom and top are constrained to 0 and 100, respectively.

The target of test [2] is BTK C481S protein (Homo sapiens (Human), UniProt Q06187, C481S). The test can be described thus: BTK C481S HTRF displacement assay. As to conditions: 1-hour incubation. It counts as binding. The method, then:
as §1, §2
The same assay was used to measure the activity of selected compounds of the formula TBM-L-hydrogen. Using the IC50 value observed for a given reversible test compound, the KI of the test compound can be assessed using the formula KI=IC50/(1+([Tracer]/Kd)), wherein the tracer concentration in the assay [Tracer] is 50 nM and the tracer Kd for BTK C481S is 54 nM.

Chain of BTK C481S protein (Q06187 2-659 C481S): as the sequence (Q06187 2-659) above, with C480S counted along it

For `COc1nn(C)cc1Nc1nc(N2CCCC3(CCN3C(=O)n3cncn3)C2)nc2c1ncn2C` (stereo not drawn) [Compound 102, (6-(6-((3-methoxy-1-methyl-1H-pyrazol-4-yl)amino)-9-methyl-9H-purin-2-yl)-1,6-diazaspiro[3.5]nonan-1-yl) (1H-1,2,4-triazol-1-yl)methanone], the IC50 in test [1] and in test [2] was above 1000 nM each time.

Turning to `COc1ccc(F)cc1C(=O)NCc1ccc(-c2nn(C[C@@H]3CCN3C(=O)n3cncn3)c3ncnc(N)c23)cc1` [Compound 103, (S)-N-(4-(1-((1-(1H-1,2,4-triazole-1-carbonyl)azetidin-2-yl)methyl)-4-amino-1H-pyrazolo[3,4-d]pyrimidin-3-yl)benzyl)-5-fluoro-2-methoxybenzamide], the IC50 in test [1] and in test [2] was at most 1000 nM each time.

Take `COc1ccc(F)cc1C(=O)NCc1ccc(-c2nn(C[C@H]3CCCCN3C(=O)n3cncn3)c3ncnc(N)c23)cc1` [Compound 104, (R)-N-(4-(1-((1-(1H-1,2,4-triazole-1-carbonyl)piperidin-2-yl)methyl)-4-amino-1H-pyrazolo[3,4-d]pyrimidin-3-yl)benzyl)-5-fluoro-2-methoxybenzamide]: the figures for the IC50 in test [1] and in test [2] were above 1000 nM and at most 1000 nM, respectively.

On to `Cc1[nH]c2c(C(N)=O)cc(F)c(N3CCC4(CCN4C(=O)n4cncn4)C3)c2c1C` (stereo not drawn) [Compound 105, 4-(1-(1H-1,2,4-triazole-1-carbonyl)-1,6-diazaspiro[3.4]octan-6-yl)-5-fluoro-2,3-dimethyl-1H-indole-7-carboxamide], for which the 50% inhibitory concentration (IC50) in test [1] and in test [2] was at most 1000 nM in each case.

For `CC1CN(Cc2ccc(C(F)(F)F)cc2N2CCCC2)CCN1C(=O)n1cncn1` (stereo not drawn) [Compound 106, (2-methyl-4-(2-(pyrrolidin-1-yl)-4-(trifluoromethyl)benzyl)piperazin-1-yl)(1H-1,2,4-triazol-1-yl)methanone], the IC50 in test [1] and in test [2] was above 1000 nM in each case.

For `COc1nn(C)cc1Nc1nc(N2CCC3(CCN3C(=O)n3cncn3)C2)nc2c1ncn2C` (stereo not drawn) [Compound 107, (6-(6-((3-methoxy-1-methyl-1H-pyrazol-4-yl)amino)-9-methyl-9H-purin-2-yl)-1,6-diazaspiro[3.4]octan-1-yl)(1H-1,2,4-triazol-1-yl)methanone], the IC50 in test [1] and in test [2] was above 1000 nM in each case.

Consider `COc1ccc(F)cc1C(=O)NCc1ccc(-c2nn(C[C@H]3CCN3C(=O)n3cncn3)c3ncnc(N)c23)cc1` [Compound 108, (R)-N-(4-(1-((1-(1H-1,2,4-triazole-1-carbonyl)azetidin-2-yl)methyl)-4-amino-1H-pyrazolo[3,4-d]pyrimidin-3-yl)benzyl)-5-fluoro-2-methoxybenzamide], for which the IC50 in test [1] and in test [2] was at most 1000 nM in each case.

Consider `CCN(C(=O)n1cncn1)C1CCCC(n2nc(-c3ccc(Oc4ccccc4)cc3)c3c(N)ncnc32)C1` (stereo not drawn) [Compound 109, N-(3-(4-amino-3-(4-phenoxyphenyl)-1H-pyrazolo[3,4-d]pyrimidin-1-yl)cyclohexyl)-N-ethyl-1H-1,2,4-triazole-1-carboxamide], for which the IC50 in test [1] and in test [2] was at most 1000 nM each time.

As to `COc1ccc(F)cc1C(=O)NCc1ccc(-c2nn(C3CCC(CN(C)C(=O)n4cncn4)C3)c3ncnc(N)c23)cc1` (stereo not drawn) [Compound 111, N-((3-(4-amino-3-(4-((5-fluoro-2-methoxybenzamido)methyl)phenyl)-1H-pyrazolo[3,4-d]pyrimidin-1-yl)cyclopentyl)methyl)-N-methyl-1H-1,2,4-triazole-1-carboxamide], the IC50 in test [1] and in test [2] was at most 1000 nM in each case.

As to `COc1ccc(F)cc1C(=O)NCc1ccc(-c2nn(CC3CC(C)CCN3C(=O)n3cncn3)c3ncnc(N)c23)cc1` (stereo not drawn) [Compound 112, N-(4-(4-amino-1-((4-methyl-1-(1H-1,2,4-triazole-1-carbonyl)piperidin-2-yl)methyl)-1H-pyrazolo[3,4-d]pyrimidin-3-yl)benzyl)-5-fluoro-2-methoxybenzamide], the IC50 in test [1] and in test [2] was above 1000 nM throughout.

For `CN(CC1CCNc2c(C(N)=O)c(-c3ccc(Oc4ccccc4)cc3)nn21)C(=O)n1cncn1` (stereo not drawn) [Compound 113, 7-((N-methyl-1H-1,2,4-triazole-1-carboxamido)methyl)-2-(4-phenoxyphenyl)-4,5,6,7-tetrahydro-pyrazolo[1,5-a]pyrimidine-3-carboxamide], the half-inhibitory concentration (IC50) in test [1] and in test [2] was above 1000 nM throughout.

`CN(C(=O)n1cncn1)C1CC(C2CCNc3c(C(N)=O)c(-c4ccc(Oc5ccccc5)cc4)nn32)C1` (stereo not drawn) [Compound 115, 7-(3-(N-methyl-1H-1,2,4-triazole-1-carboxamido)cyclobutyl)-2-(4-phenoxyphenyl)-4,5,6,7-tetrahydropyrazolo[1,5-a]pyrimidine-3-carboxamide]: the IC50 in test [1] and in test [2] was at most 1000 nM throughout.

In the case of `COc1ccc(F)cc1C(=O)NCc1ccc(-c2nn(C3(CN(C)C(=O)n4cnc(C#N)n4)CC3)c3ncnc(N)c23)cc1` [Compound 117, N-((1-(4-amino-3-(4-((5-fluoro-2-methoxybenzamido)methyl)phenyl)-1H-pyrazolo[3,4-d]pyrimidin-1-yl)cyclopropyl)methyl)-3-cyano-N-methyl-1H-1,2,4-triazole-1-carboxamide], the IC50 in test [1] is at most 1000 nM; in test [2], above 1000 nM.

Consider `COc1ccc(F)cc1C(=O)NCc1ccc(-c2nn(C3(CN(C)C(=O)n4cnnn4)CC3)c3ncnc(N)c23)cc1` [Compound 119, N-((1-(4-amino-3-(4-((5-fluoro-2-methoxybenzamido)methyl)phenyl)-1H-pyrazolo[3,4-d]pyrimidin-1-yl)cyclopropyl)methyl)-N-methyl-1H-tetrazole-1-carboxamide], for which the IC50 in test [1] was at most 1000 nM; in test [2], above 1000 nM.

Consider `CCN(CC1CCNc2c(C(N)=O)c(-c3ccc(Oc4ccccc4)cc3)nn21)C(=O)n1cncn1` (stereo not drawn) [Compound 120, 7-((N-ethyl-1H-1,2,4-triazole-1-carboxamido)methyl)-2-(4-phenoxyphenyl)-4,5,6,7-tetrahydro-pyrazolo[1,5-a]pyrimidine-3-carboxamide], for which the half-inhibitory concentration (IC50) in test [1] and in test [2] was above 1000 nM throughout.

For `COc1ccc(F)cc1C(=O)NCc1ccc(-c2nn(C[C@@H]3CC[C@H]3N(C)C(=O)n3cncn3)c(N)c2C(N)=O)cc1` [Compound 121, N-((1R,2S)-2-((5-amino-4-carbamoyl-3-(4-((5-fluoro-2-methoxybenzamido)methyl)phenyl)-1H-pyrazol-1-yl)methyl)cyclobutyl)-N-methyl-1H-1,2,4-triazole-1-carboxamide], the 50% inhibitory concentration (IC50) in test [1] and in test [2] was at most 1000 nM in each case.

As to `COc1ccc(F)cc1C(=O)NCc1ccc(-c2nn(C3CCCN(C(=O)n4cncn4)C3)c(N)c2C(N)=O)cc1` (stereo not drawn) [Compound 124, 1-(1-(1H-1,2,4-triazole-1-carbonyl)piperidin-3-yl)-5-amino-3-(4-((5-fluoro-2-methoxybenzamido)methyl)phenyl)-1H-pyrazole-4-carboxamide], the half-maximal inhibitory concentration (IC50) in test [1] and in test [2] was at most 1000 nM in each case.

For the compound `COc1ccc(F)cc1C(=O)NCc1ccc(-c2nn(C[C@@H](C)N(C)C(=O)n3cncn3)c3ncnc(N)c23)cc1` [Compound 125, (R)-N-(1-(4-amino-3-(4-((5-fluoro-2-methoxybenzamido)methyl)phenyl)-1H-pyrazolo[3,4-d]pyrimidin-1-yl)propan-2-yl)-N-methyl-1H-1,2,4-triazole-1-carboxamide], the IC50 in test [1] and in test [2] was at most 1000 nM throughout.

In the case of `COc1ccc(F)cc1C(=O)NCc1ccc(-c2nn(CC3CCCCC3N(C)C(=O)n3cncn3)c3ncnc(N)c23)cc1` (stereo not drawn) [Compound 126, N-(2-((4-amino-3-(4-((5-fluoro-2-methoxybenzamido)methyl)phenyl)-1H-pyrazolo[3,4-d]pyrimidin-1-yl)methyl)cyclohexyl)-N-methyl-1H-1,2,4-triazole-1-carboxamide], the IC50 in test [1] and in test [2] was at most 1000 nM throughout.

On to `COc1ccc(F)cc1C(=O)NCc1ccc(-c2nn(C(CC3CC3)CN(C)C(=O)n3cncn3)c3ncnc(N)c23)cc1` (stereo not drawn) [Compound 127, N-(4-(4-amino-3-(4-((5-fluoro-2-methoxybenzamido)methyl)phenyl)-1H-pyrazolo[3,4-d]pyrimidin-1-yl)-3-cyclopropylpropyl)-N-methyl-1H-1,2,4-triazole-1-carboxamide], for which the IC50 in test [1] and in test [2] was above 1000 nM throughout.

For the compound `Cc1[nH]c2c(C(N)=O)cc(F)c(N3CCC(N(C)C(=O)n4cncn4)C3)c2c1C` (stereo not drawn) [Compound 128, 5-fluoro-2,3-dimethyl-4-(3-(N-methyl-1H-1,2,4-triazole-1-carboxamido)pyrrolidin-1-yl)-1H-indole-7-carboxamide], the half-inhibitory concentration (IC50) in test [1] and in test [2] was at most 1000 nM each time.
